Test results as given in patent US5876676A, “Preservation of blood platelets” (priority 1996, dated 1999).
Starred links: 1 amine or outer side, 2 acyl side, 3 side chain; linkers in the order of their positions; H or OH if unused. Positions of bridges follow the written chain, without caps; N, C: chain ends. Non-standard residues stand in square brackets, D forms with d. Residues, ends and D or L forms follow the SMILES beside them. Trp(2-yl) = O=C([C@H](Cc1c([*:3])[nH]c2ccccc12)N[*:1])[*:2]; Leu(4R-OH,5-OH) = C[C@](O)(CO)C[C@H](N)C(=O)O; cisHyp = O=C(O)[C@@H]1C[C@H](O)CN1

Tests used:
[1] = tested on: platelets; assay: Morphology and cytoskeleton of Quin-2-loaded platelets, resting or activated (light and electron microscopy); format: cell-based, human
Procedure: (§1) Human blood from healthy volunteers, drawn into 0.1 vol of Aster-Jandl anticoagulant, was centrifuged at 110 g for 10 min. The platelet-rich plasma was gel-filtered through a Sepharose 2B column equilibrated and eluted with a solution containing 145 mM NaCl, 10 mM Hepes, 10 mM glucose, 0.5 mM Na2 HPO4, 5 mM KCl, 2 mM MgCl2, and 0.3% BSA, pH 7.4 (platelet buffer). 2 U/ml apyrase was added to the platelet suspension and the cells were left standing for 60 min. at 37° C. as previously reported (Hartwig, J., and M. DeSisto, 1991 J. Cell Biol. 112:407-425; Hartwig, J., et al. 1989 J. Cell Biol. 109:1571-1579). To maintain cytosolic calcium at or below its resting level during cell activation, cells were loaded with 30 uM Quin-2AM during minutes 30-60 of the rest period. The effect of Quin-2 was reversed by the addition of 1 mM CaCl2 to the bathing media before centrifugation of the Quin 2-loaded cells onto the coverslips or after the cells had been attached and formed filopodia on the coverslip. Glass-adherent, Quin-2 loaded cells were also treated with 1 mM CaCL2 and 20 nM of the ionophore A23187 for 15 seconds (s) and then detergent permeabilized. In some cases, platelets were used directly from platelet-rich plasma by diluting it 1:20 with platelet buffer containing, in addition, 0.1 mM EGTA and 2 U/ml apyrase. The diluted cells were incubated for 30 min. at 37° C. to insure a resting state.
Platelet suspensions were activated by the addition of 1 U/ml of thrombin (hereafter called thrombin-activated) for 15-30 seconds in studies of nucleation activity. Activation was terminated by permeabilizing the cells as detailed below. Glass activation was used for the morphological studies. Cells were glass-activated by centrifugation onto polylysine-coated glass coverslips at 250 g for 5 min. Coverslips were placed in the bottom of multiwell plates (24 or 96 wells), covered with 0.25 ml of platelet suspension, and centrifuged at 37° C. in a Sorvall HB-6000 centrifuge using multiwell carriers.
Light microscopy and electron microscopy of platelets and cytoskeletons were performed according to standard methods, see e.g., Hartwig, J., 1992, J. Cell Biol. 118(6):1421-1442. The localization of gelsolin in platelets was performed by gold labeling of cytoskeletons from resting and activated cells with antibodies to gelsolin. The affinity-purified goat anti-rabbit macrophage gelsolin IgG was described earlier (Hartwig, J., and M. DeSisto, 1991 J. Cell Biol. 112:407-425; Hartwig, J., and P. Shevlin, 1986 J. Cell Biol. 103:1007-1020).

[2] = tested on: platelets; assay: Nucleation activity in lysates from Quin-2-loaded, thrombin-activated platelets; format: cell-based, human
Procedure: as §1, with “In some cases, platelets were used directly from platelet-rich plasma by diluting it 1:20 with platelet buffer containing, in addition, 0.1 mM EGTA and 2 U/ml apyrase. The diluted cells were incubated for 30 min. at 37° C. to insure a resting state.” left out
The effect of cell lysates on the rate and extent of pyrene-labeled rabbit skeletal muscle actin was determined as described previously (Hartwig, J., and P. Janmey, 1989 Biochim. Biophys. Acta. 1010:64-71). […] The relative contribution of nuclei with barbed or pointed ends in the cell lysates was determined by adding 2 uM cytochalasin B to the pyrene nucleation assay system. […] To determine if the measured stimulation of actin assembly and its decay with time was due to the growth of pyrene-actin addition onto cellular filaments subject to depolymerization in the diluted lysate, 0.1 uM phalloidin or phallacidin was added to the cell lysates during their preparation to stabilize the filaments. […] However, we also determined that the soluble phase from cells permeabilized with detergent in the presence of EGTA contained calcium dependent nucleation activity. […]

[3] = Quin-2-loaded platelets, glass activated

CNc1ccc2oc(C[C@H]3O[C@@]4(CC[C@H]3C)O[C@H]([C@H](C)C(=O)c3ccc[nH]3)[C@H](C)C[C@H]4C)nc2c1C(=O)O [A23187]
Cytoskeletons of Quin-2-loaded, glass-activated cells after external calcium plus ionophore ([1]; added external calcium (1 mM CaCl2) with 20 nM A23187, within seconds): completely disrupted

COc1cc(N(CC(=O)OCOC(C)=O)CC(=O)OCOC(C)=O)c2nc(COc3cc(C)ccc3N(CC(=O)OCOC(C)=O)CC(=O)OCOC(C)=O)ccc2c1 [Quin-2AM, acetoxymethyl ester of quin-2]
Effect on structure of resting cells and their cytoskeletons ([1]; 30 uM Quin-2AM loading, light microscope): no effect | Swelling, actin filament severing and extension of lamellipodial networks associated with platelet activation ([1]; quin-2AM prior to activation with thrombin): prevented

COc1cc(N(CC(=O)O)CC(=O)O)c2nc(COc3cc(C)ccc3N(CC(=O)O)CC(=O)O)ccc2c1 [Quin-2]
activity at 30 µM ([2]; Homo sapiens, Platelet, Quin-2-loaded, thrombin-activated, assayed immediately, read-out: Nucleation activity relative to lysates from untreated and activated cells): 28% | Stability of nucleation activity in detergent lysates ([2]; Quin-2-loaded cells, lysates incubated as long as 10 min before assay): no loss in its activity | Rearrangements of gelsolin on activation (immunoelectron microscopy) ([1]; Quin-2-loaded and activated cells): did not occur | Filopodia length [1, 3]: 2-5 um | Morphology after glass activation [1, 3]: extend filopodia but not lamellipodia

C[C@@H]1NC(=O)[C@H](C[C@@](C)(O)CO)NC(=O)[C@@H]2Cc3c([nH]c4ccccc34)SC[C@H](NC(=O)[C@@H]([C@H](C)O)NC1=O)C(=O)N1C[C@@H](O)C[C@H]1C(=O)N[C@@H](C)C(=O)N2 [phalloidin] (cyclo(A[dT]C[cisHyp]A[Trp(2-yl)][Leu(4R-OH,5-OH)]); thioether 3-6)
Effect on nucleation activity in lysates from Quin-2-loaded cells ([2]; 0.1 uM phalloidin in lysates, Quin-2-loaded, thrombin-activated): no effect
